This is an account of results in ChEMBL document CHEMBL3046656, “Apoptotic effects of some carbazole derivatives on lung carcinoma and glioma cell lines” (Med Chem Res, 2013).

Assay [1] relates to C6. In words: Induction of apoptosis in Rattus norvegicus (rat) C6 cells assessed as late apoptotic cells at IC50 after 24 hr by annexin V FITC/propidium iodide staining-based FACS flow cytometric analysis (reference value: 1.1%). It is filed as functional. (In general: Flow cytometry measures light scatter and fluorescence of single cells or particles in a stream.)
Assay [2] has as its system C6. In words: Induction of apoptosis in Rattus norvegicus (rat) C6 cells assessed as early apoptotic cells at IC50 after 24 hr by annexin V FITC/propidium iodide staining-based FACS flow cytometric analysis (reference value: 0.5%). It counts as functional.
For assay [3], the system named is A549. In words: Induction of necrosis in Homo sapiens (human) A549 cells at IC50 after 24 hr by annexin V FITC/propidium iodide staining-based FACS flow cytometric analysis relative to untreated control. It counts as functional.
Assay [4] concerns A549. In words: Induction of apoptosis in Homo sapiens (human) A549 cells assessed as viable cells at IC50 after 24 hr by annexin V FITC/propidium iodide staining-based FACS flow cytometric analysis (reference value: 96.5%). It is filed as functional.
Assay [5] concerns A549. In words: Induction of apoptosis in Homo sapiens (human) A549 cells assessed as late apoptotic cells at IC50 after 24 hr by annexin V FITC/propidium iodide staining-based FACS flow cytometric analysis (reference value: 0.4%). It is filed as functional.
Assay [6] deals with A549. In words: Induction of apoptosis in Homo sapiens (human) A549 cells assessed as early apoptotic cells at IC50 after 24 hr by annexin V FITC/propidium iodide staining-based FACS flow cytometric analysis (reference value: 0.5%). It is filed as functional.
In assay [7] the test system is C6. Nature of the assay: Inhibition of nuclear DNA synthesis in Rattus norvegicus (rat) C6 cells assessed as decrease in bromodeoxyuridine incorporation measured during S phase after 24 hr by ELISA. It is filed as functional, cell-based. A general note: An ELISA detects its analyte on a solid surface through an enzyme-linked reagent.
Assay [8] has as its system A549. Nature of the assay: Inhibition of nuclear DNA synthesis in Homo sapiens (human) A549 cells assessed as decrease in bromodeoxyuridine incorporation measured during S phase after 24 hr by ELISA. It is filed as functional, cell-based.
Assay [9] relates to C6. Nature of the assay: Inhibition of nuclear DNA synthesis in Rattus norvegicus (rat) C6 cells assessed as decrease in bromodeoxyuridine incorporation measured during S phase at 3.9 to 7.8 ug/mL after 24 hr by ELISA. It counts as functional.
Assay [10] has as its system A549. In words: Inhibition of nuclear DNA synthesis in Homo sapiens (human) A549 cells assessed as decrease in bromodeoxyuridine incorporation measured during S phase at 15.6 to 62.5 ug/mL after 24 hr by ELISA. It is filed as functional.
Assay [11] concerns NIH3T3. Nature of the assay: Cytotoxicity against Mus musculus (mouse) NIH/3T3 cells after 24 hr by MTT assay. It is filed as cell-based. The conditions noted are these: NIH3T3, 24 h. For orientation: Tetrazolium dyes change colour on reduction, which living cells bring about.
The test system of assay [12] is C6. Nature of the assay: Cytotoxicity against Rattus norvegicus (rat) C6 cells after 24 hr by MTT assay. It is filed as functional, cell-based. The conditions noted are these: C6, 24 h.
For assay [13], the system named is A549. In words: Cytotoxicity against Homo sapiens (human) A549 cells after 24 hr by MTT assay. The settings on record: A549, 24 h. It is filed as functional, cell-based.
Assay [14] deals with Acetylcholinesterase (Electrophorus electricus, UniProt O42275). Nature of the assay: Inhibition of Electrophorus electricus (electric eel) AChE using acetylthiocholine iodide as substrate incubated for 15 min prior to substrate addition measured after 30 min by Ellman's spectrophotometric method.
Assay [15] concerns the target Acetylcholinesterase (Electrophorus electricus) (UniProt O42275). In words: Inhibition of Electrophorus electricus (electric eel) AChE using acetylthiocholine iodide as substrate at 80 ug/mL incubated for 15 min prior to substrate addition measured after 30 min by Ellman's spectrophotometric method relative to control.
Assay [16] concerns C6. In words: Induction of necrosis in Rattus norvegicus (rat) C6 cells at IC50 after 24 hr by annexin V FITC/propidium iodide staining-based FACS flow cytometric analysis relative to untreated control. It is filed as functional.
In assay [17] the test system is C6. In words: Induction of apoptosis in Rattus norvegicus (rat) C6 cells assessed as viable cells at IC50 after 24 hr by annexin V FITC/propidium iodide staining-based FACS flow cytometric analysis (reference value: 96.4%). It counts as functional.
In assay [18] the test system is C6. Nature of the assay: Inhibition of nuclear DNA synthesis in Rattus norvegicus (rat) C6 cells assessed as decrease in bromodeoxyuridine incorporation measured during S phase at 15.6 to 31.2 ug/mL after 24 hr by ELISA. It is filed as functional.
Assay [19] has as its system C6. Nature of the assay: Inhibition of nuclear DNA synthesis in Rattus norvegicus (rat) C6 cells assessed as decrease in bromodeoxyuridine incorporation measured during S phase at IC50 after 24 hr by ELISA. It is filed as functional.
The test system of assay [20] is A549. Nature of the assay: Inhibition of nuclear DNA synthesis in Homo sapiens (human) A549 cells assessed as decrease in bromodeoxyuridine incorporation measured during S phase at IC50 after 24 hr by ELISA. It is filed as functional.

The structures appear in SMILES notation. Values after ≈ are worked out from the molar mass of the structure shown. Active and inactive are the calls of the source. The rule behind the calls is not given here.

Sequence of Acetylcholinesterase (Electrophorus electricus) (O42275 24-633 limits assumed): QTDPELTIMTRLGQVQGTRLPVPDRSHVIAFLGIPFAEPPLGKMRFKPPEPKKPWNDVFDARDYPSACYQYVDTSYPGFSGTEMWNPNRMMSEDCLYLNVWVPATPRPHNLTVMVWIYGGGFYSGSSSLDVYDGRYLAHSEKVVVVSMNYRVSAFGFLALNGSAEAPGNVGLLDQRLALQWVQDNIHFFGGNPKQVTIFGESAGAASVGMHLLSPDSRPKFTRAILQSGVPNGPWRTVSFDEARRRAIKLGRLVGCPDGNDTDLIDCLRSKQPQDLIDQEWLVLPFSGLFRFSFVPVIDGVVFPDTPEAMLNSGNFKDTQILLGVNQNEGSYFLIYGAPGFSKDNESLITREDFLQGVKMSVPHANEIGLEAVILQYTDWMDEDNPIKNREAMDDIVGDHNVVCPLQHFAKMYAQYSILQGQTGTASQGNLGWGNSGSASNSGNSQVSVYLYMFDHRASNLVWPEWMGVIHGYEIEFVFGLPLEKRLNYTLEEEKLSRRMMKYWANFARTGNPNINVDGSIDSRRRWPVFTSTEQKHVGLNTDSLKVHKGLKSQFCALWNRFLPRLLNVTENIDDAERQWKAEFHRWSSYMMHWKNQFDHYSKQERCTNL
Sequence of Acetylcholinesterase (O42275 whole entry): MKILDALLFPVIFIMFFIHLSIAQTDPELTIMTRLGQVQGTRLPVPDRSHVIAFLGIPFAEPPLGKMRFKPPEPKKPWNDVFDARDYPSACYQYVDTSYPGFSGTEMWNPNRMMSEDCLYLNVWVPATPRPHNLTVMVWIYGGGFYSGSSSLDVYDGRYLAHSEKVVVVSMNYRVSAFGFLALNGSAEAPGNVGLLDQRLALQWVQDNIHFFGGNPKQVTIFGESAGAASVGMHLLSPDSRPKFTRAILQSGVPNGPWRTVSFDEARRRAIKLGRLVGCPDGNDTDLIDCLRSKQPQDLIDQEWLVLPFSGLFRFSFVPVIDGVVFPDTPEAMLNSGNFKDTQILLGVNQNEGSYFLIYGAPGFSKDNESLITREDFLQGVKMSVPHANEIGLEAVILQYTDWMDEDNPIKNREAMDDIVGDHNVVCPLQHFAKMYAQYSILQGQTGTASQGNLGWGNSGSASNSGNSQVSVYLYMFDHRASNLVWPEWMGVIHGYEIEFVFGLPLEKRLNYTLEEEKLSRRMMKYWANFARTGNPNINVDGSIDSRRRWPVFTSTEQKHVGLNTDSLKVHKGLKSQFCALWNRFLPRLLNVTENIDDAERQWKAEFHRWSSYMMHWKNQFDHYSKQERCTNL

In the case of `CCn1c2ccccc2c2cc(NC(=O)CSC(=S)N3CCN(CCN(C)C)CC3)ccc21`, the Activity in assay [1] is listed as 11.5%; in [2], 83.7%; in [3], 16.6%; in assay [4], 65%; in [5], 8.1%; in assay [6], 10.3%. Besides, the values for the Activity in [16] and in assay [17] were 0.2% and 4.7%, respectively. The results for the inhibition entry in assay [7], in assay [8] and in assay [15] were “Dose-dependent effect”, “Dose-dependent effect” and 91.3%, respectively. Also, the entries for the “inhibition (INH)” value in [9] and in assay [10] were 87.1% and 53.4%, respectively. In addition, the IC50 was 44.3 µg/mL (≈ 91.6 µM) in assay [11], 5.9 µg/mL (≈ 12.2 µM) in assay [12], 41 µg/mL (≈ 84.8 µM) in assay [13] and 15.5 µM in assay [14].

With `CCn1c2ccccc2c2cc(NC(=O)CSC(=S)N3CCC(C)CC3)ccc21`, the inhibition entry in [7] was “Dose-dependent effect”; in [8], “Dose-dependent effect”; in assay [15], 23.6%. For the same molecule, the inhibition result in assay [10] is “Active”. Further, the IC50 in assay [11] is greater than 500 µg/mL; in assay [12] it was 167 µg/mL (≈ 392 µM); in assay [13], 313 µg/mL (≈ 736 µM); in assay [14], greater than 188 µM.

As for `CCN1CCN(C(=S)SCC(=O)Nc2ccc3c(c2)c2ccccc2n3CC)CC1`, the inhibition entry was “Dose-dependent effect” in [7], “Dose-dependent effect” in [8] and 19.6% in [15]. For the same molecule, the inhibition entry in assay [10] was “Active”. In addition, the IC50 is less than 3.9 µg/mL in assay [11], 20 µg/mL (≈ 45.4 µM) in assay [12], 61.7 µg/mL (≈ 140 µM) in [13] and greater than 182 µM in [14].

As to `CCN(CC)C(=S)SCC(=O)Nc1ccc2c(c1)c1ccccc1n2CC`, the inhibition entry in assay [7] was “Dose-dependent effect”; in [8], “Dose-dependent effect”; in [15] it was 18.3%. Besides, the inhibition entry in [10] is “Active”. Moreover, the IC50 in assay [11] is 390 µg/mL (≈ 976 µM); in assay [12], 64.3 µg/mL (≈ 161 µM); in assay [13] it was 41.7 µg/mL (≈ 104 µM); in assay [14], greater than 200 µM.

As to `CCn1c2ccccc2c2cc(NC(=O)CSC(=S)N3CCN(c4ccccc4)CC3)ccc21`, the inhibition entry is “Dose-dependent effect” in [7], “Dose-dependent effect” in assay [8] and 26.6% in [15]. Further, the inhibition result in assay [10] is “Active”. Also, the IC50 in assay [11] was 357 µg/mL (≈ 730 µM); in assay [12], 143 µg/mL (≈ 293 µM); in assay [13], 193 µg/mL (≈ 395 µM); in [14], greater than 164 µM.

Consider `CCn1c2ccccc2c2cc(NC(=O)CSC(=S)N3CCCC3)ccc21`, for which the inhibition entry in [7] was “Dose-dependent effect”; in assay [8], “Dose-dependent effect”; in assay [15], 9.05%. Besides, the inhibition result in assay [10] was “Active”. The IC50 in assay [11] was 270 µg/mL (≈ 679 µM); in assay [12], 75 µg/mL (≈ 189 µM); in assay [13], 193 µg/mL (≈ 486 µM); in assay [14], greater than 201 µM.

On to `CCn1c2ccccc2c2cc(NC(=O)CSC(=S)N3CCCCC3C)ccc21` (stereo unspecified), for which the Activity in [1] is listed as 5.1%; in [2], 6.2%; in [3], 2.9%; in [4] it was 93.3%; in assay [5] it was 1%; in assay [6] it was 2.8%. Further, the Activity in [16] worked out at 0.3%; in [17], 88.3%. Moreover, the inhibition result in assay [7] was “Dose-dependent effect”; in [8] it was “Dose-dependent effect”; in assay [15], 18%. In addition, the “inhibition (INH)” value in [10] was found to be 71.2%; in assay [18] it was 48.3%. For the same molecule, the half-maximal inhibitory concentration (IC50) in [11] was 257 µg/mL (≈ 603 µM); in assay [12], 26.7 µg/mL (≈ 62.7 µM); in assay [13] it was 29.3 µg/mL (≈ 68.8 µM); in [14], greater than 188 µM.

For the molecule `CCn1c2ccccc2c2cc(NC(=O)CSC(=S)N3CCN(Cc4ccccc4)CC3)ccc21`, the inhibition entry was “Dose-dependent effect” in assay [7], “Dose-dependent effect” in [8] and 12.8% in [15]. The inhibition entry in assay [10] is “Active”. For the same molecule, the IC50 in [11] is 110 µg/mL (≈ 218 µM); in assay [12], 170 µg/mL (≈ 338 µM); in assay [13], 107 µg/mL (≈ 212 µM); in assay [14], greater than 159 µM.

As to `CCn1c2ccccc2c2cc(NC(=O)CSC(=S)N3CCCCC3)ccc21`, the values for the inhibition entry in assay [7], in [8] and in [15] were “Dose-dependent effect”, “Dose-dependent effect” and 11.3%, respectively. The inhibition result in [10] was “Active”. For the same molecule, the IC50 in assay [11] is 393 µg/mL (≈ 956 µM); in [12] it was 198 µg/mL (≈ 482 µM); in [13], 177 µg/mL (≈ 429 µM); in assay [14] it was greater than 194 µM.

In the case of `CCn1c2ccccc2c2cc(NC(=O)CSC(=S)N3CCN(C)CC3)ccc21`, the Activity came to 8.8% in assay [1]; 7.3% in assay [2]; 3.3% in [3]; 94.5% in assay [4]; 0.4% in assay [5]; 1.8% in [6]. For the same molecule, the Activity in assay [16] is 0%; in [17] it was 82.3%. In addition, the inhibition result is “Dose-dependent effect” in assay [7], “Dose-dependent effect” in assay [8] and 21.1% in [15]. The “inhibition (INH)” value in assay [10] is reported as 46.6%; in [18] it was 45.5%. Further, the IC50 in assay [11] is 48.7 µg/mL (≈ 114 µM); in assay [12], 21.3 µg/mL (≈ 49.9 µM); in assay [13], 34.3 µg/mL (≈ 80.4 µM); in assay [14] it was greater than 188 µM.

On to `CCn1c2ccccc2c2cc(NC(=O)CSC(=S)N3CCOCC3)ccc21`, for which the values for the inhibition result in [7], in assay [8] and in assay [15] were “Dose-dependent effect”, “Dose-dependent effect” and 15.4%, respectively. For the same molecule, the inhibition entry in assay [10] is “Active”. Further, the IC50 in assay [11] is 127 µg/mL (≈ 306 µM); in [12] it was 180 µg/mL (≈ 435 µM); in [13], 25.7 µg/mL (≈ 62.1 µM); in assay [14], greater than 193 µM.

On to `O=C1c2c(O)ccc(O)c2C(=O)c2c(NCCNCCO)ccc(NCCNCCO)c21` [MITOXANTRONE], for which the inhibition result in assay [7] and in assay [8] was “Dose-dependent effect” in each case. The figures for the IC50 in assay [12] and in [13] were 10.9 µg/mL (≈ 24.5 µM) and 25.3 µg/mL (≈ 56.9 µM), respectively. For the same molecule, the “inhibition (INH)” value in assay [19] came to 84.6%; in [20], 67.3%.

Usually inhibition stands for how much of the control response was suppressed. What is called IC50 is the concentration at which inhibition is half-maximal.
